Experimental data as given in patent US20230233569A1 (Revolution Medicines, Inc., priority 2020, published 2023).
Like-named read-outs stand apart in the source and are kept apart here.

Experiments:
KRAS G13C = KRAS G13C (Homo sapiens, UniProt P01116+P62937, G13C); assay: Disruption of BRAF RBD interaction with Ras (FRET / MOA assay, with Cyclophilin A); format: biochemical
Method in brief: (§1)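 TR-FRET: nucleotide-loaded K-Ras mutant or WT with Cyclophilin A and BRAF RBD, compound 10-point 3-fold from 30 μM final, 3 h at 25° C, then anti-His Eu (10 nM) and anti-GST APC (50 nM) for 1.5 h. Decreased FRET ratio versus DMSO gives IC50.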

KRAS G13D = KRAS G13D (Homo sapiens, UniProt P01116+P62937, G13D); assay: as above; format: biochemical
Method in brief: as §1

KRAS G12S = KRAS G12S (Homo sapiens, UniProt P01116+P62937, G12S); assay: as above; format: biochemical
Method in brief: as §1

KRAS WT = KRAS WT (Homo sapiens, UniProt P01116+P62937); assay: as above; format: biochemical
Method in brief: as §1

NRAS G12C = NRAS G12C (Homo sapiens, UniProt P01111+P62937, G12C); assay: as above; format: biochemical
KRAS G12C = KRAS G12C (Homo sapiens, UniProt P01116+P62937, G12C); assay: as above; format: biochemical
Method in brief: as §1

KRAS G12D = KRAS G12D (Homo sapiens, UniProt P01116+P62937, G12D); assay: as above; format: biochemical
Method in brief: as §1

KRAS G12V = KRAS G12V (Homo sapiens, UniProt P01116+P62937, G12V); assay: as above; format: biochemical
Method in brief: as §1

Capan-1 (K-Ras G12V) = assay: CellTiter-Glo cell viability assay, 5-day treatment; format: cell-based; conditions: Homo sapiens, CAPAN-1, 120 h, 5-day treatment; read-out: Capan-1 Cell Viability assay data (K-Ras G12V, IC50)
Method in brief: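 Five-day compound treatment of plated cells; luminescent read after ~30 min at RT. Percent-of-DMSO data fit to a four-parameter logistic model.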

[1] = read-out: KRAS G13C FRET data, IC50
[2] = KRAS G13D, read-out: KRAS G13D FRET data IC50
[3] = read-out: KRAS G12S FRET data, IC50
[4] = KRAS WT, read-out: KRAS WT FRET data IC50
[5] = NRAS G12C, read-out: NRAS G12C FRET data IC50
[6] = read-out: KRAS G12C FRET data, IC50
[7] = read-out: KRAS G12D FRET data, IC50
[8] = KRAS G12V, read-out: KRAS G12V FRET data IC50
[9] = KRAS G13D FRET data IC50, KRAS G13D
[10] = KRAS WT FRET data IC50, KRAS WT
[11] = NRAS G12C FRET data IC50, NRAS G12C
[12] = KRAS G12V FRET data IC50, KRAS G12V

KRAS G12D, sequence (P01116 1-169 isoform P01116-2 G12D limits assumed): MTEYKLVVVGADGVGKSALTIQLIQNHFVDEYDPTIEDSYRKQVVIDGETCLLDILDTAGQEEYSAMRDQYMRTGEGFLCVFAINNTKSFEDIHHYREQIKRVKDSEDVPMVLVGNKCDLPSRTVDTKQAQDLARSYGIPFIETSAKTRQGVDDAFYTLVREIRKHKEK
KRAS G12D, sequence (P62937 whole entry): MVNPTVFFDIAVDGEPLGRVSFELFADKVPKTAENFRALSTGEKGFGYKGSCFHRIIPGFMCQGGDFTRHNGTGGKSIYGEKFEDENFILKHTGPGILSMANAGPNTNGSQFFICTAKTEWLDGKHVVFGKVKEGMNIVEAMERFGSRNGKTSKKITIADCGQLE
KRAS G13D, sequence (P01116 1-169 isoform P01116-2 G13D limits assumed): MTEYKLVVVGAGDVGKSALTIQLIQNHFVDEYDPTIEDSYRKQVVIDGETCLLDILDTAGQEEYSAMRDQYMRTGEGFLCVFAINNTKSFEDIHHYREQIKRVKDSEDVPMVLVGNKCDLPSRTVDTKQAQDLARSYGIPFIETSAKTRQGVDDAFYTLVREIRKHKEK
KRAS G13D, sequence (P62937 whole entry): as the sequence (P62937 whole entry) above
KRAS G12V, sequence (P01116 1-169 isoform P01116-2 G12V limits assumed): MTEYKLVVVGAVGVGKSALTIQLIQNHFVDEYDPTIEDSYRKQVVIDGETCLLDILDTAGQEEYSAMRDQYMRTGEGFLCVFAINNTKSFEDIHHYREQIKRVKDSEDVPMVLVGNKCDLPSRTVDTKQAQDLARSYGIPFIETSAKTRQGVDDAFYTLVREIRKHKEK
KRAS G12V, sequence (P62937 whole entry): as the sequence (P62937 whole entry) above
NRAS G12C, sequence (P01111 whole entry G12C): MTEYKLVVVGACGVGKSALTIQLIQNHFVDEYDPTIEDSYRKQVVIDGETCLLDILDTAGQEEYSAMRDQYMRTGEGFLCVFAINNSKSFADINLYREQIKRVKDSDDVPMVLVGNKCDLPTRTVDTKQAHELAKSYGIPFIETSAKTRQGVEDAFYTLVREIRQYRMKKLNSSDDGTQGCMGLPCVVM
NRAS G12C, sequence (P62937 whole entry): as the sequence (P62937 whole entry) above
KRAS WT, sequence (P01116 1-169 isoform P01116-2 limits assumed): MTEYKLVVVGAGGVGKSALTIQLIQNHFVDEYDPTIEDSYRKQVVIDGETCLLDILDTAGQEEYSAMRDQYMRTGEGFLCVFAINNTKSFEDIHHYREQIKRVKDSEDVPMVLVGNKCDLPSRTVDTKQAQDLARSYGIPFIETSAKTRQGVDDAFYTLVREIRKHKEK
KRAS WT, sequence (P62937 whole entry): as the sequence (P62937 whole entry) above
KRAS G13C, sequence (P01116 1-169 isoform P01116-2 G13C): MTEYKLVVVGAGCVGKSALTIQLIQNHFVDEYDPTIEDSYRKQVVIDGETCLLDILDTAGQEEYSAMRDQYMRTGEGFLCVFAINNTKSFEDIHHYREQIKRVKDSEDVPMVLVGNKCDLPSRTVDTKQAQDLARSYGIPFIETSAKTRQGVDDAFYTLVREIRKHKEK
KRAS G13C, sequence (P62937 whole entry): as the sequence (P62937 whole entry) above
KRAS G12S, sequence (P01116 1-169 isoform P01116-2 G12S limits assumed): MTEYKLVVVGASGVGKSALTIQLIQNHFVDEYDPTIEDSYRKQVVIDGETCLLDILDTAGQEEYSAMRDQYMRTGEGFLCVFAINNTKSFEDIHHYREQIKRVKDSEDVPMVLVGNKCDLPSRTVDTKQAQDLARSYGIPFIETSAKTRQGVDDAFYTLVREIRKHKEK
KRAS G12S, sequence (P62937 whole entry): as the sequence (P62937 whole entry) above
KRAS G12C, sequence (P01116 1-169 isoform P01116-2 G12C): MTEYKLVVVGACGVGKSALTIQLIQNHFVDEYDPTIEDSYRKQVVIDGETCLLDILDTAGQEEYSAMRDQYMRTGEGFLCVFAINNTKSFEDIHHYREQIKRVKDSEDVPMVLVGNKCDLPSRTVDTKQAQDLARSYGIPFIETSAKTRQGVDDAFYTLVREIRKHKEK
KRAS G12C, sequence (P62937 whole entry): as the sequence (P62937 whole entry) above

Row | SMILES | IC50 (KRAS G13C; [1]) [nM] | IC50 (KRAS G13D; [2]) [nM] | IC50 (KRAS G12S; [3]) [nM] | IC50 (KRAS WT; [4]) [nM] | IC50 (NRAS G12C; [5]) [nM] | IC50 (KRAS G12C; [6]) [nM] | IC50 (KRAS G12D; [7]) [nM] | IC50 (KRAS G12V; [8]) [nM] | IC50 (KRAS G13C; KRAS G13C FRET data, IC50) [nM] | IC50 (KRAS G13D; [9]) [nM] | IC50 (KRAS G12S; KRAS G12S FRET data, IC50) [nM] | IC50 (KRAS WT; [10]) [nM] | IC50 (NRAS G12C; [11]) [nM] | IC50 (KRAS G12C; KRAS G12C FRET data, IC50) [nM] | IC50 (KRAS G12D; KRAS G12D FRET data, IC50) [nM] | IC50 (KRAS G12V; [12]) [nM] | IC50 (Capan-1 (K-Ras G12V)) [nM]
1 | CCn1c(-c2cccnc2[C@H](C)OC)c2c3cc(ccc31)-c1cccc(c1)C[C@H](NC(=O)[C@H](C(C)C)N(C)C(=O)[C@H]1CCN(C(=O)CN(C)C)C1)C(=O)N1CCC[C@H](N1)C(=O)OCC(C)(C)C2 [Example A96] | 100 to 1000 | 1000 to 10000 | 1000 to 10000 | 1000 to 10000 | 100 to 1000 | 100 to 1000 | 1000 to 10000 | 1000 to 10000 |  |  |  |  |  |  |  |  | 1000 to 10000
2 | CCn1c(-c2cccnc2[C@H](C)OC)c2c3cc(ccc31)-c1cccc(c1)C[C@H](NC(=O)[C@H](C(C)C)N(C)C(=O)[C@H]1CCN(C(=O)CNC)C1)C(=O)N1CCC[C@H](N1)C(=O)OCC(C)(C)C2 [Example A98] |  |  |  |  |  |  |  |  | 100 to 1000 | 1000 to 10000 | 1000 to 10000 | 1000 to 10000 | 100 to 1000 | 100 to 1000 | 1000 to 10000 | 1000 to 10000 | > 10000
3 | CCn1c(-c2cccnc2[C@H](C)OC)c2c3cc(ccc31)-c1cccc(c1)C[C@H](NC(=O)[C@H](C(C)C)N(C)C(=O)[C@H]1CCN(C(=O)CN)C1)C(=O)N1CCC[C@H](N1)C(=O)OCC(C)(C)C2 [Example A105] | 100 to 1000 | 1000 to 10000 | 1000 to 10000 | 1000 to 10000 | 1000 to 10000 | 100 to 1000 | 1000 to 10000 | 1000 to 10000 |  |  |  |  |  |  |  |  | > 10000
4 | CCn1c(-c2cccnc2[C@H](C)OC)c2c3cc(ccc31)-c1csc(n1)C[C@H](NC(=O)[C@H](C(C)C)N(C)C(=O)[C@H]1CCN(C(=O)CN)C1)C(=O)N1CCC[C@H](N1)C(=O)OCC(C)(C)C2 [Example A106] | 100 to 1000 | 1000 to 10000 | 1000 to 10000 | 100 to 1000 | 100 to 1000 | 100 to 1000 | 100 to 1000 | 1000 to 10000 |  |  |  |  |  |  |  |  | 1000 to 10000

The next lines start with results.

Row | IC50 (KRAS G13C; [1]) [nM] | IC50 (KRAS G13D; [2]) [nM] | IC50 (KRAS G12S; [3]) [nM] | IC50 (KRAS WT; [4]) [nM] | IC50 (NRAS G12C; [5]) [nM] | IC50 (KRAS G12C; [6]) [nM] | IC50 (KRAS G12D; [7]) [nM] | IC50 (KRAS G12V; [8]) [nM] | IC50 (KRAS G13C; KRAS G13C FRET data, IC50) [nM] | IC50 (KRAS G13D; [9]) [nM] | IC50 (KRAS G12S; KRAS G12S FRET data, IC50) [nM] | IC50 (KRAS WT; [10]) [nM] | IC50 (NRAS G12C; [11]) [nM] | IC50 (KRAS G12C; KRAS G12C FRET data, IC50) [nM] | IC50 (KRAS G12D; KRAS G12D FRET data, IC50) [nM] | IC50 (KRAS G12V; [12]) [nM] | SMILES | IC50 (Capan-1 (K-Ras G12V)) [nM]
5 | 1000 to 10000 | 1000 to 10000 | 1000 to 10000 | 1000 to 10000 | 1000 to 10000 | 1000 to 10000 | 1000 to 10000 | > 10000 |  |  |  |  |  |  |  |  | CCn1c(-c2cccnc2[C@H](C)OC)c2c3cc(ccc31)-c1csc(n1)C[C@H](NC(=O)[C@H](C(C)C)N(C)C(=O)[C@H]1CCN(C)C1)C(=O)N1CCC[C@H](N1)C(=O)OCC(C)(C)C2 [Example A108] | > 10000
6 | 100 to 1000 | 1000 to 10000 | 1000 to 10000 | 1000 to 10000 | 1000 to 10000 | 1000 to 10000 | 1000 to 10000 | > 10000 |  |  |  |  |  |  |  |  | CCn1c(-c2cccnc2[C@H](C)OC)c2c3cc(ccc31)-c1cccc(c1)C[C@H](NC(=O)[C@H](C(C)C)N(C)C(=O)[C@H]1CCN(CCO)C1)C(=O)N1CCC[C@H](N1)C(=O)OCC(C)(C)C2 [Example A109] | > 10000
7 | 1000 to 10000 | 1000 to 10000 | 1000 to 10000 | 1000 to 10000 | 1000 to 10000 | 1000 to 10000 | 1000 to 10000 | 1000 to 10000 |  |  |  |  |  |  |  |  | CCn1c(-c2cccnc2[C@H](C)OC)c2c3cc(ccc31)-c1cccc(c1)C[C@H](NC(=O)[C@H](C(C)C)N(C)C(=O)[C@H]1CCN(C(=O)C(C)(C)N(C)C)C1)C(=O)N1CCC[C@H](N1)C(=O)OCC(C)(C)C2 [Example A112] | 1000 to 10000
8 | 1000 to 10000 | 1000 to 10000 | 1000 to 10000 | 1000 to 10000 | 1000 to 10000 | 1000 to 10000 | 1000 to 10000 | 1000 to 10000 |  |  |  |  |  |  |  |  | CCn1c(-c2cccnc2[C@H](C)OC)c2c3cc(ccc31)-c1csc(n1)C[C@H](NC(=O)[C@H](C(C)C)N(C)C(=O)[C@H]1CCN(C(=O)C(C)(C)N(C)C)C1)C(=O)N1CCC[C@H](N1)C(=O)OCC(C)(C)C2 [Example A113] | 1000 to 10000
9 |  |  |  |  |  |  |  |  | 100 to 1000 | 100 to 1000 | 100 to 1000 | 100 to 1000 | 100 to 1000 | 100 to 1000 | 100 to 1000 | 1000 to 10000 | CCn1c(-c2cccnc2[C@H](C)OC)c2c3cc(ccc31)-c1cc(O)cc(c1)C[C@H](NC(=O)[C@H](C(C)C)N(C)C(=O)C1CCNCC1)C(=O)N1CCC[C@H](N1)C(=O)OCC(C)(C)C2 [Example A122] | > 10000
